In publication PMC11694514, “Structural and kinetic characterization of DUSP5 with a Di-phosphorylated tripeptide substrate from the ERK activation loop” (Frontiers in chemical biology, 2024):
Where two headings read alike, the source gives them in different places. Where a SMILES comes first, the peptide text is derived from it. [ ]: non-standard residue; d: D form. pY = N[C@@H](Cc1ccc(OP(=O)(O)O)cc1)C(=O)O; pT = C[C@@H](OP(=O)(O)O)[C@H](N)C(=O)O

What was measured:
[1] = molecular target: Bovine Low Molecular Weight Phosphotyrosyl Phosphatase; design: method as in Zhang et al. (1997); conditions: Bovine heart, substrate PNPP, Sodium acetate, ref Zhang et al. (1997), cited from earlier work
[2] = molecular target: Acid phosphatases (Bovine liver); design: method as in Lawrence and Van Etten (1981); conditions: pH 5.5, substrate PNPP, Sodium acetate, ref Lawrence and Van Etten (1981); cited from earlier work
[3] = molecular target: PTP1B; conditions: cited from earlier work
[4] = molecular target: Human prostatic acid phosphatase; conditions: pH 5.0; substrate PNPP; Sodium acetate; ref Zhou et al. (1993); cited from earlier work
[5] = molecular target: Phosphotyrosyl protein phosphatases; conditions: pH 5.0; substrate PNPP; Sodium acetate; ref Zhou et al. (1993); cited from earlier work
[6] = molecular target: SHP-1 (domain containing protein tyrosine phosphatase-1); conditions: pH 7.5; substrate PNPP; Tris; ref Heo et al. (2002); cited from earlier work
[7] = molecular target: PTPase; conditions: substrate PNPP, ref Deng et al. (2002), cited from earlier work
[8] = molecular target: Bacteriophage λ protein phosphatase; conditions: pH 7.8; substrate PNPP; Tris; ref Reiter et al. (2001); cited from earlier work
[9] = molecular target: T1, DUSP5pdWT (Homo sapiens, UniProt Q16690); assay: Steady state inhibition of pNPP hydrolysis by vanadate and phosphate; conditions: for inhibition pattern / Ki (Kis): pNPP substrate; for Ki (Kis): Tris pH 7.5, 0.045 mM DTT, global kinetics analysis
T1 sequence (Q16690 178-319 limits assumed): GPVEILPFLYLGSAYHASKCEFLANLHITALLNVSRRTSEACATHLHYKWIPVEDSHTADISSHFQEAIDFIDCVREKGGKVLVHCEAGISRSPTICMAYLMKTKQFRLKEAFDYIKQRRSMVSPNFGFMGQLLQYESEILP
Procedure: All assays were carried out using pNPP as a substrate in the presence of DTT using a microplate reader and a total volume of 100 μL. Each assay contained an enzyme concentration of approximately 0.072 mg/mL (appropriately 3.13 μM DUSP5pdWT) which was left in a stock solution at about 1 h at 4°C before use. Each assay consisted of a reaction mixture in 100 mM tris-hydrochloride buffer containing 100 mM NaCl and 5.0 mM magnesium chloride (MgCl2) at pH 7.5. […] The kinetic parameters were measured in the presence of 0.045 mM DTT in the assay solution and the assay was started with the addition of pNPP.
For phosphate inhibition studies, the phosphate inhibitor concentrations used were 0.5; 1; 2; 5; 10 mM. […] The kinetic runs were repeated three times and the data were initial processed using excel and the global kinetics analysis was performed using GraphPad Prism 10.1.2. The errors provided in the analysis were calculated by the program.

[10] = molecular target: T2, DUSPpdWT (Homo sapiens, UniProt Q16690); assay: 31P NMR monitoring of tripeptide hydrolysis; format: biochemical
T2 construct: The Dusp5 phosphatase domain gene, both wild type (WT; DUSP5pdWT; used for kinetic studies); inferred from the Nickel NTA purification), with additional N-terminal amino acids (N); made in house
T2 sequence (Q16690 178-319 limits assumed): T1 sequence (Q16690 178-319 limits assumed)
Procedure: Hydrolysis of the pThr-Glu-pTyr peptide was monitored using ^31P 1D NMR and a Varian 500 MHz spectrometer equipped with a broad band probe. 1 mM of peptide was incubated with 100 μM of DUSPpdWT protein for 3 min, and spectra were collected at 25°C. See Figure 2 and, for a time course, Supplementary Figure S3.

[11] = molecular target: T1, DUSP5pdWT; assay: Steady state inhibition of pNPP hydrolysis by tripeptides; format: biochemical; design: The Dusp5 phosphatase domain gene, both wild type (WT; DUSP5pdWT; used for kinetic studies); inferred from the Nickel NTA purification), with additional N-terminal amino acids (N); made in house; conditions: for Ki: peptide as inhibitor of pNPP hydrolysis
[12] = Ki, global competitive model, Lineweaver-Burk fit (equation S2)
[13] = Ki, global competitive model, Michaelis-Menten fit (Eq. 2)

Q: Which results are given for sodium vanadate?
A: Ki ([1]; pH 5.0): 5.4 µM; Ki ([1]; pH 7.5): 1 µM; Ki [2]: 2000 µM; Ki ([3]; pH 5.5, substrate PNPP, Tris, ref Heo et al. (2002)): 410 µM; Ki ([3]; pH 7.3, substrate FDP, HEPES, ref Huyer et al. (1997)): 0.38 µM; Ki ([3]; pH 7.5, substrate PNPP, Tris, ref Heo et al. (2002)): 5.6 µM; Ki [4]: 36 µM; Ki [5]: 24 µM; Ki [6]: 9.3 µM; Ki ([7]; pH 5.5, Acetate): 1.1 µM; Ki ([7]; pH 7.5, Tris): 1.2 µM; Ki [8]: 0.7 µM; inhibition pattern [9]: competitive inhibitors

Q: What does the source list for `CC(=O)N[C@H](C(=O)N[C@@H](CCC(=O)O)C(=O)N[C@@H](Cc1ccc(OP(=O)(O)O)cc1)C(N)=O)[C@@H](C)OP(=O)(O)O` [pT-E-pY, Ac-pThr-Glu-pTyr-NH2] (Ac-[pT]-Glu-[pY]-NH2)?
A: conversion to orthophosphate (both phosphates cleaved) ([10]; 1 mM peptide, 100 μM DUSP5pdWT, 3 min, 25°C): 100%; pT and pY peptides remaining (each) ([10]; 10-fold lower enzyme concentration, even after prolonged incubation): about 25%; conversion ([10]; 10-fold lower enzyme concentration, first timepoint after 3 min incubation): about 50%; Ki [11, 12]: 1220 µM; Ki [11, 13]: 1670 µM; kcat ([11]; pNPP substrate, peptide as inhibitor, global competitive model, Michaelis-Menten fit (Eq. 2)): 2.03 ± 0.07 × 10^−2 s^−1; fold more potent binder ([11]; relative to the pY monophosphorylated peptide): roughly 3 x

Q: For `CC(=O)N[C@H](C(=O)N[C@@H](CCC(=O)O)C(=O)N[C@@H](Cc1ccc(OP(=O)(O)O)cc1)C(N)=O)[C@@H](C)O` [T-E-pY] (Ac-Thr-Glu-[pY]-NH2), which Ki [11, 12] is on record?
A: The Ki was 4800 µM.

Q: What about the Ki [11, 13] of the same compound?
A: The Ki was 4930 µM.

Q: For `CC(=O)N[C@H](C(=O)N[C@@H](CCC(=O)O)C(=O)N[C@@H](Cc1ccc(O)cc1)C(N)=O)[C@@H](C)OP(=O)(O)O` [pT-E-Y] (Ac-[pT]-Glu-Tyr-NH2), which Ki ([11]; global competitive model, Lineweaver-Burk fit (equation S2), read-out: Ki) is on record?
A: Its Ki is 21900 µM.

Q: And the Ki ([11]; global competitive model, Michaelis-Menten fit (Eq. 2), read-out: Ki)?
A: Its Ki is 15800 µM.

Q: With `O=[N+]([O-])c1ccc(OP(=O)(O)O)cc1` [pNPP, p-nitrophenol phosphate] as the compound, how does the Km ([9]; pH 7.5) read?
A: Its Km is 8.02 mM.

Q: With `O=P(O)(O)O` [phosphate, sodium phosphate] as the compound, how does the Ki ([1]; pH 5.0) read?
A: Its Ki is 2200 ± 0.4 µM.

Q: And the Ki ([1]; pH 7.5)?
A: The Ki was 6200 µM.

Q: What about the Ki [2] of the same compound?
A: The Ki was 3000 µM.

Q: And the Ki ([3]; pH 7.0, substrate PNPP, 3,3-Dimethylglutarate, ref Zhang, Y.L. and Zhang, Z.Y. (1998))?
A: The Ki was 17000 µM.

Q: What about the inhibition pattern [9] of the same compound?
A: The inhibition pattern was “competitive inhibitors”.

Q: And the “Ki (Kis)” value ([9]; listed as Phosphate)?
A: Its value is 17300 µM.

Q: And the “Ki (Kis)” value ([9]; listed as sodium phosphate)?
A: The value was 17320 µM.

Q: And the inhibition pattern ([9]; listed as Phosphate)?
A: The inhibition pattern was “competitive inhibition pattern”.
